Experimental data as given in patent US7947653B1, “Methods for treating epidermal growth factor receptor tyrosine kinase inhibitor-resistant cancers” (Cold Spring Harbor Laboratory, priority 2009, dated 2011).

Tests used:
NCI-H1650 M3 cells = assay: Sensitivity to erlotinib, MTT assay, erlotinib-resistant cells; type: cell-based, human
Description: Viability was measured by MTT assay relative to untreated cells, with each data point showing the average of four replicates.

phospho-STAT3 [1] = assay: Western blot for phospho-STAT3, NCI-H1650 M3 cells; type: cell-based, human
Description: (§1) Adherent cells were washed with 1×PBS and whole cell lysate was extracted and western blot analysis was performed as previously described (Sordella et al. Science 305, 1163-1167; 2004). Antibodies against phosphor-EGFR (Tyr1068), total Akt, phospho-Akt (Ser473), total ERK 1/2, phospho-ERK 1/2 (Thr202/tyr204), phospho-STAT3 (Tyr705), cleaved PARP and phospho-MET (Tyr1234/Tyr1235) were purchased from Cell Signaling Technology (Danvers, Mass.). Total cMET and total EGFR antibodies were purchased from Santa Cruz Biotechnology (Santa Cruz, Calif.). The antibody against total STAT3 was purchased from BD Biosciences (San Jose, Calif.).
To determine whether IL-6 was the autocrine factor responsible for promoting STAT3 phosphorylation in the erlotinib-resistant cells, the expression of IL-6 was inhibited using siRNA technology. Briefly, NCI-H 1650 M3 cells were transfected with siRNA targeting IL-6 (siRNA I and II) or a non-specific siRNA (siRNA III) using Lipofectamine 2000 at a final concentration of 30 nM siRNA. After 6 days cell extracts were analyzed by immunoblotting for phospho-STAT3, STAT3 and tubulin. […] Thus, an increased secretion of IL-6 was responsible for the observed STAT3 phosphorylation. […] Cell extracts were analyzed by immunoblot for phospho-STAT3 and total STAT3. […]

NCI-H1650 cells [2] = assay: Mouse xenograft model, tumor burden; type: in vivo, Nu/Nu mice; settings: topical TPA 5 days, then erlotinib by oral gavage versus DMSO
Description: The in vivo mouse experiments were performed by inoculating subcutaneously 3×10^6 NCI-H1650 cells subcutaneously into each flank of immunodeficient Nu/Nu mice in Swiss CD 1 background (Charles River Breeding Laboratories, Wilmington, Mass.). After the tumors reached a volume of approximately 100 mm^3, mice were treated topically every 2 days with TPA (10 μL of 0.25 mg/mL solution in acetone) or with acetone for 5 days. […] Tumor volume was monitored with a digital caliper and calculated using the following formula: (length)×(width)^2/2.
IL-6 is a pleiotropic cytokine that exerts important biological functions in a wide variety of systems and processes (e.g., inflammation, acute-phase reaction, nervous and endocrine systems, bone metabolism, hematopoiesis). […] Cutaneous inflammation and secretion of IL-6 by topic treatment of the mouse epidermis with low dose of 12-O-tetradecanoyl-phorbol-13-acetate (TPA) every other day was induced in a Nu/nu mouse model (Vasunia et al. Carcinogenesis 1994, 15: 653). Acetone was used as a vehicle control. The Nu/nu mice were subsequently injected in the flank with NSCLC expressing mutant EGFR.
After 8 days, tumor burden was evaluated and the averages of four separate tumors were charted.

IL-6 [3] = assay: IL-6 immunostaining of tumor sections; type: in vivo, Nu/Nu mice; settings: TPA-treated versus acetone-treated mice, topical
Description: Formalin-fixed, paraffin-embedded sections (4 μm) were stained for IL-6. Sections were de-embedded and rehydrated and epitope retrieval was performed by heating the sections in 0.01M citrate buffer at pH 6.0 in a microwave oven for 10 minutes. Endogenous peroxidase activity was blocked by treatment with 3% hydrogen peroxide in PBS for 10 minutes. After washing with PBS the blocking was performed using the Avidin/Biotin blocking kit (Vector laboratories, Cambridge, UK), Super Block (ID laboratories, London, CDN) and Mouse Block (ID laboratories, London, CDN). The sections were incubated with the primary antibody IL-6 (ab6672; Abcam, Cambridge, UK) in 1:300 dilution at 4° C. overnight. The IHC detection was done with the IDetect Super Stain System HRP (ID laboratories, London, CDN). […]
Protein expression was measured by defining regions of interest (ROI) using automated cell acquisition and quantification software for Immunohistochemistry (Histoquest™) and immunofluorescence (Tissuequest™).
Immunostaining of tumor sections using an anti-IL-6 antibody confirmed that TPA was able to augment IL-6 expression in the tumors. […] The levels of IL-6 in tumor matters were further measured by defining regions of interest (ROI) using automated cell acquisition and quantification software for immunohistochemistry (Histoquest™) or quantification software for immunofluorescence (Tissuequest™). […]

NCI-H1650 = assay: Sensitivity to erlotinib, MTT assay; type: cell-based; settings: Homo sapiens, read-out: IC50 to either gefitinib or erlotinib treatment; NCI-H1650, EGFR delE746-A750; 'typically displays'
phospho-STAT3 [4] = assay: Western blot for phospho-STAT3, parental cells; type: cell-based, human
Description: as §1
(§2) Cell extracts were analyzed by immunoblotting with antibodies specific to Tubulin, AKT, P-AKT, STAT3, and P-STAT3.

P-EGFR = assay: Western blot for P-EGFR, parental and resistant cells; type: cell-based, human; settings: parental versus NCI-H1650 M3, erlotinib 0.01-10 μM, 3 hours
From the text: (§3) Antibodies against phosphor-EGFR (Tyr1068), total Akt, phospho-Akt (Ser473), total ERK 1/2, phospho-ERK 1/2 (Thr202/tyr204), phospho-STAT3 (Tyr705), cleaved PARP and phospho-MET (Tyr1234/Tyr1235) were purchased from Cell Signaling Technology (Danvers, Mass.). Total cMET and total EGFR antibodies were purchased from Santa Cruz Biotechnology (Santa Cruz, Calif.). The antibody against total STAT3 was purchased from BD Biosciences (San Jose, Calif.).

P-AKT = assay: Western blot for P-AKT; type: cell-based, human
Description: as §3, §2

cleaved PARP = assay: Immunoblot for cleaved PARP (apoptosis); type: cell-based, human
Description: as §1
Cells not treated with the drug were used as a control. Cell extracts obtained after 72 hours were analyzed by immunoblotting for cleaved PARP (CL-PARP), an indicator of apoptosis status.

IL-6 [5] = assay: IL-6 ELISA of cell media; type: cell-based, human; settings: NCI-H1650 M3, in the presence of erlotinib 10 μM
Description: Cells were grown to approximately 80% confluency. Cells were washed with 1×PBS and fresh media was added. After 24 hours the supernatant was collected and analyzed for IL-6 using an ELISA kit (Diaclone, Canton, Mass.) following the manufacturers instruction.
The mRNA levels of various secreted proteins, including HGF, EGF, LIF, CNTF, IL-1A, IL-11, OSM and IL-6 (which are known to increase STAT3 phosphorylation), were examined by RT-PCR, the results normalized against beta-actin mRNA levels. No substantial levels of HGF were detected in either the parental-sensitive cells or in the resistant cells. Among these protein factors, a substantial increase in IL-6 mRNA levels was found in the resistant cells as compared to parental cells. This increase in IL-6 mRNA expression correlated with augmented levels of the protein secretion as determined by enzyme-linked immunosorbent assay (ELISA). See FIG. 2, Panel A; levels of IL-6 were measured by ELISA with each point representing the average of four data points.

PC9 cells = assay: Sensitivity to erlotinib with IL-6, MTT assay; type: cell-based, human; settings: PC9, 10 ng/ml IL-6 24 hours, then erlotinib at various concentrations 72 hours
NCI-H1650 cells [6] = assay: Soft agar assay; type: cell-based, human; settings: NCI-H1650, erlotinib with or without IL-6 (10 ng/ML)
Description: Cells were plated in triplicate in 12-well plates at 5000 cells/well, mixed in RPMI-1640, 5% FBS and 0.35% agarose. Cells were cultured for 20 days in presence of the indicated treatment. Colonies were visualized by staining with tetrazolium salt (Schaeffer W. I., Friend K. (1976) Cancer Lett 1:259-262). The number of colonies were determined using the J-Image software (htpp://rsbweb.hih.gov/ij/) on Z-stack images (Z=1.5 mm) at 5× magnification. Each data point represents the average of 3 fields from 3 individual wells.
The numbers of cell colonies were countered after a suitable period of time. The number of colonies were determined using the J-image software on Z-stack images (Z=1.5.mm) at 5× magnification. […] See FIG. 3, Panel C (each point represents the average of 3 fields from individual wells). […] See FIG. 3, Panel D (each bar representing the average of 4 replicates).

[7] = system: NSCLC cell lines expressing mutant EGFR; assay: Cell proliferation upon stimulation with IL-6; type: cell-based, human; settings: stimulation with IL-6 (10 ng/ml)
[8] = cells grown with or without IL-6, then erlotinib 4 hours, cell line not stated

CC(C)(C)c1nc2c3ccc(F)cc3c3c(=O)[nH]ccc3c2[nH]1 [P6, 2-tert-butyl-9-fluoro-3,6-dihydro-7H-benz[h]-imidaz[4,5-f] isoquinoline-7-one]
cell viability upon erlotinib treatment (NCI-H1650 M3 cells; NCI-H1650 M3, P6 2 μM): significantly decreased | STAT3 phosphorylation levels (phospho-STAT3 [1]; NCI-H1650 M3, 2 μM, 2 days): decreased

CCCCCCCCCCCCCC(=O)O[C@@H]1[C@@H](C)[C@@]2(O)[C@@H](C=C(CO)C[C@]3(O)C(=O)C(C)=C[C@@H]23)[C@@H]2C(C)(C)[C@]12OC(C)=O [TPA, 12-O-tetradecanoyl-phorbol-13-acetate]
tumor response to erlotinib treatment (tumor burden) (NCI-H1650 cells [2]): dramatically reduced | IL-6 mean intensity in tumors (IL-6 [3]): much higher

C#Cc1cccc(Nc2ncnc3cc(OCCOC)c(OCCOC)cc23)c1 [erlotinib, N-(3-ethynylphenyl)-6,7-bis(2-methoxyethoxy)quinazolin-4-amine]
IC50 (NCI-H1650): ~5 µM | erlotinib concentration in the presence of which the isolated cell line is capable of growing (NCI-H1650 M3 cells; NCI-H1650 M3, selected in constant high erlotinib): up to 30 μM | cell viability of NCI-H1650 M3 cells versus parental cells (NCI-H1650 M3 cells; erlotinib 0.3125-10 μM, 72 hours, particularly at high concentrations): much higher than that of the parental cells | phosphorylated STAT3 (phospho-STAT3 [4]; parental NCI-H1650 cells, high erlotinib concentrations, 3 hours): undetectable | STAT3 phosphorylation levels (phospho-STAT3 [1]; NCI-H1650 M3, erlotinib up to 10 μM, 3 hours): maintained high STAT3 phosphorylation levels | EGFR phosphorylation levels upon erlotinib treatment (P-EGFR): comparable inhibition | levels of phosphorylation of AKT (P-AKT; parental versus NCI-H1650 M3, erlotinib treatment): similarly inhibited | cleavage of PARP upon erlotinib treatment (cleaved PARP; NCI-H1650 M3 compared to parental cells, erlotinib 10 μM, 24 hours): substantial decrease | level of CL-PARP in erlotinib-treated cells compared to control cells (cleaved PARP; resistant cells, extracts after 72 hours): significantly increased | IL-6 levels in the media (ELISA) (IL-6 [5]): did not change

IL-6: Recombinant Interleukin-6 (rhIL6) from R&D systems
effect on erlotinib-mediated inhibition of STAT3 phosphorylation (phospho-STAT3 [4]; [8]): impaired inhibition of STAT3 phosphorylation | effect on erlotinib-mediated inhibition of AKT activation (P-AKT; [8]): did not have any effect | CL-PARP levels in the drug treated cells (cleaved PARP; resistant cells grown with IL-6 24 hours, then erlotinib, 72 hours): decreased CL-PARP levels | cell resistance to erlotinib (viability by MTT) (PC9 cells): increased PC9 cell resistance to erlotinib | cell resistance to erlotinib (number of colonies in soft agar) (NCI-H1650 cells [6]): significantly increased cell resistance to erlotinib | cell proliferation [7]: No substantial changes
